Reference: publication PMC9966435, “Synthesis and Biological Evaluation of 3-Amidoquinuclidine Quaternary Ammonium Compounds as New Soft Antibacterial Agents” (Pharmaceuticals, 2023)
Where two headings read alike, the source gives them in different places.

Columns and labels:
Format in all cases: cell-based
[1] = tested on: Escherichia coli ATTC25922; test: Broth microdilution MIC in Mueller Hinton broth
[2] = tested on: Staphylococcus aureus Clinical/MRSA; test: Broth microdilution MIC in Mueller Hinton broth; conditions: for MIC: Staphylococcus aureus, MRSA, read-out: Minimum Inhibitory Concentration (MIC) Staphylococcus aureus Clinical/MRSA
[3] = tested on: Enterococcus faecalis ATCC29212; test: Broth microdilution MIC in Mueller Hinton broth
[4] = tested on: Staphylococcus aureus ATCC33591; test: Broth microdilution MIC in Mueller Hinton broth
[5] = tested on: Salmonella enterica food isolate; test: microbe, parasite or virus in culture; conditions: MHB, read-out: Minimum Inhibitory Concentration (MIC) Salmonella enterica food isolate
[6] = tested on: Staphylococcus aureus ATCC25923; test: Broth microdilution MIC in Mueller Hinton broth
[7] = tested on: Listeria monocytogenes ATCC7644; test: Broth microdilution MIC in Mueller Hinton broth
[8] = tested on: Bacillus cereus ATCC14579; test: Broth microdilution MIC in Mueller Hinton broth
[9] = tested on: Staphylococcus aureus ATCC 25923; test: MIC in Dulbecco's Modified Eagle Medium (DMEM); conditions: ATCC25923, read-out: MIC DMEM
Protocol: The overnight culture of Staphylococcus aureus ATCC 25923 was diluted in fresh Mueller Hinton broth (MHB) and placed in an orbital shaker incubator (Gallenkamp, Cambridge, UK) at 37 °C and 220 rpm. Once the culture reached the exponential growth phase (OD600 = 0.3–0.5), cells were centrifuged (Heraeus, Biofuge primo R, Hanau, Germany) at room temperature at a speed of 4000× g. The cell pellet was resuspended in tempered Dulbecco’s Modified Eagle Medium (DMEM) to a final concentration of 5 × 10^5 CFU/mL. Then, 50 µL of as-prepared cells were added to a 96-well plate containing twofold serial dilutions of tested compounds in DMEM medium in the range of concentrations from 125 µM to 0.12 µM. The minimum inhibitory concentration (MIC) was visually assessed the next day. The MIC was determined as the lowest concentration of the substance at which no apparent bacterial growth was seen.

[10] = tested on: Staphylococcus aureus ATCC 25923 biofilm; test: Biofilm inhibition assay (crystal violet); conditions: ATCC25923, 12.5 μg mL−1, 48 h
Protocol: Therefore, we investigated the antibiofilm activity of the new 3-amidoquinuclidine QACs against the biofilm-forming pathogen S. aureus ATCC 25923, which causes opportunistic infections of various tissues in humans. […] Antibiofilm activity was evaluated at four different concentrations (12.5, 25, 50, and 100 μ g mL^−1), and as shown on the crystal violet heat map (CV) (Figure 3A), all compounds have the potential to inhibit biofilm formation, albeit at different concentrations.
Minimum biofilm inhibitory concentration (MBIC) was determined against Staphylococcus aureus ATCC 25923. Compounds were dissolved in MHB and serially diluted in 96-well plates with a final mass concentration ranging from 100 to 12.5 µg/mL. The exponentially grown culture (OD600 = 0.3–0.5) of S. aureus ATCC 25923 was diluted to a final concentration of 5 × 10^6 CFU/mL. Then, 50 µL of such prepared cell culture was added to the 96-well plates containing twofold dilutions of the compound to be tested. The plates were incubated for 48 h. After incubation, the broth over the biofilm was aspirated, and the plate with the biofilm was dried at 60 °C. […] Absorbance was measured at 595 nm in an optical reader. The percentage of biofilm formed was calculated by dividing the absorbance of the well containing the tested substance by the absorbance of the untreated bacterial cells and multiplying by 100.

[11] = tested on: Staphylococcus aureus ATCC 25923; test: MIC in cation-adjusted Mueller Hinton broth (CA-MHB); conditions: ATCC25923, read-out: MIC CA-MHB
Protocol: A representative bacterial strain, Staphylococcus aureus ATCC 25923, was grown overnight in Mueller Hinton broth (MHB). The following day, the culture was diluted in tempered MHB and allowed to grow at 37 °C with constant shaking of 220 rpm. Once the bacterial culture reached the exponential growth phase (OD600 = 0.3–0.5), it was diluted in the cation-adjusted Mueller Hinton broth (CA-MHB) containing MgCl2 (10 mM) to the final cell count of 5 × 10^5 CFU/mL. The previously prepared 96-well plate contained twofold serial dilutions of the compounds to be tested, dissolved in CA-MHB, in the concentrations range of 125 µM to 0.12 µM. Then, 50 µL of the bacterial cells diluted in CA-MHB was pipetted in each well of the plate and incubated overnight at 37 °C with constant shaking at 220 rpm. The next day, the minimum inhibitory concentration (MIC) was determined as the lowest concentration of the compound that prevented supposed bacterial growth in the wells. Visually determined results of antibacterial activity were confirmed by the addition of 20 µL 2-(4-iodophenyl)-3-(4-nitrophenyl)-5-phenyltetrazolium chloride (INT) reagent (6 mg/mL). The MIC value of a drug in CA-MHB containing NaCl (85 mM) was determined using the same experimental technique.

[12] = tested on: Pseudomonas aeruginosa ATTC27853; test: Broth microdilution MIC in Mueller Hinton broth
[13] = tested on: Staphylococcus aureus ATCC 25923; test: Time-resolved growth analysis
Protocol: The growth kinetic experiments were performed to further investigate the efficacy of the selected 3-amidoquinnuclidine candidates. The candidates from series 1 (QC14-Me, QC14-Ally, QC16-Me, and QC16-Ally) and series 3 (QBn-C12, QBn-C14, and QBn-C16) were incubated at MIC and ½ MIC for 350 min with an appropriate number of CFU of Staphylococcus aureus ATCC 25923 at 37 °C with shaking. Time-resolved growth analysis was performed along with the control, in which bacterial growth was monitored without the presence of the antibacterial agent.
Time-resolved growth analysis was performed in the microtiter plate reader (Bio-Tek EL808, Winooski, VT, USA) by incubating the selected antibacterial agent with Staphylococcus aureus ATCC 25923. The exponentially grown culture (OD600 = 0.3–0.5) of S. aureus ATCC 25923 was diluted to a final concentration of 5 × 10^4 CFU/mL. Then, 50 µL of such prepared cell culture was added to the 96-well plates containing the MIC or ½ MIC of the compound to be tested. The plates were incubated at 37 °C for 350 min in the microplate reader with shaking. OD600 was recorded at 10 min intervals. The results obtained represent the mean of two independent experiments performed in triplicate.

[14] = tested on: Staphylococcus aureus ATCC 33591; conditions: MIC in MHB vs MIC with 10 µM CCCP, S. aureus ATCC 33591
Protocol: Bacterial susceptibility toward (±)3-amidoquinuclidine quaternary ammonium compounds was evaluated in the presence of an ATP synthesis inhibitor carbonyl cyanide 3-chlorophenylhydrazone (CCCP) (Sigma Aldrich). The minimum inhibitory concentration (MIC) of CCCP against Staphylococcus aureus ATCC 33591 (MRSA) was established before the experiment. The overnight culture of Staphylococcus aureus ATCC 33591 was diluted in tempered Mueller Hinton broth (MHB) and cultivated in the orbital shaker at 37 °C and 220 rpm. When the culture reached the preexponential phase of growth (OD600 = 0.3–0.5), it was diluted to a final concentration of 5 × 10^5 CFU/mL in MHB containing 10 µM CCCP. A total of 50 µL of prepared cell suspension was pipetted into a 96-well plate containing twofold serial dilutions of tested compounds in MHB with CCCP at a final concentration of 10 µM. Plates were incubated overnight, and the MIC reduction of tested compounds in the presence of 10 µM CCCP was recorded the following day.

[15] = Escherichia coli, ATTC25922, read-out: Minimum Inhibitory Concentration (MIC) Escherichia coli ATTC25922
[16] = Enterococcus faecalis, ATCC29212, read-out: Minimum Inhibitory Concentration (MIC) Enterococcus faecalis ATCC29212
[17] = Staphylococcus aureus, ATCC33591, read-out: Minimum Inhibitory Concentration (MIC) Staphylococcus aureus ATCC33591
[18] = MHB, read-out: Minimum Inhibitory Concentration (MIC) Staphylococcus aureus ATCC25923
[19] = Staphylococcus aureus, ATCC25923, read-out: Minimum Inhibitory Concentration (MIC) Staphylococcus aureus ATCC25923
[20] = Listeria monocytogenes, ATCC7644, read-out: Minimum Inhibitory Concentration (MIC) Listeria monocytogenes ATCC7644
[21] = Bacillus cereus, ATCC14579, read-out: Minimum Inhibitory Concentration (MIC) Bacillus cereus ATCC14579
[22] = Pseudomonas aeruginosa, ATTC27853, read-out: Minimum Inhibitory Concentration (MIC) Pseudomonas aeruginosa ATTC27853

## C=CC[N+]12CCC(CC1)C(NC(=O)CCCCCCCCCCCCCCC)C2 (stereo not shown) [QC16-Ally]
[1]; [15]
  MIC: > 100 µM
[2]
  MIC: 31 µM
[3]; [16]
  MIC: > 100 µM
[4]; [17]
  MIC: 25 µM
[5]; Salmonella enterica
  MIC: > 125 µM
[6]; [18]
  MIC: 15 µM
[6]; [19]
  MIC: 15 µM
[7]; [20]
  MIC: 16 µM
[8]; [21]
  MIC: > 100 µM
[9]
  MIC: 3 µM
[10]
  inhibition at 12.5 µg/mL: ~100%
[11]
  MIC: 15 µM
[12]; [22]
  MIC: > 125 µM

## C=CC[N+]12CCC(CC1)C(NC(=O)CCCCCCCCCCCCC)C2 (stereo not shown) [QC14-Ally]
[1]; [15]
  MIC: 50 µM
[2]
  MIC: 25 µM
[3]; [16]
  MIC: 15 µM
[4]; [17]
  MIC: 50 µM
[5]; Salmonella enterica
  MIC: > 125 µM
[6]; [18]
  MIC: 20 µM
[6]; [19]
  MIC: 20 µM
[13]
  inhibition of bacterial growth at ½ MIC: unable to inhibit bacterial growth
[7]; [20]
  MIC: 8 µM
[8]; [21]
  MIC: 25 µM
[9]
  MIC: 6 µM
[10]
  inhibition at 12.5 µg/mL: ~100%
[11]
  MIC: 20 µM
[12]; [22]
  MIC: > 125 µM

## CCCCCCCCCCCC[N+](C)(C)Cc1ccccc1.[Br-] [BAB, benzyldimethyldodecylammonium bromide, reference compound]
[1]; MHB, read-out: Minimum Inhibitory Concentration (MIC) Escherichia coli ATTC25922
  MIC: 63 µM
[2]; MHB
  Minimum Inhibitory Concentration (MIC) Staphylococcus aureus Clinical/MRSA: 25 µM
[3]; MHB, read-out: Minimum Inhibitory Concentration (MIC) Enterococcus faecalis ATCC29212
  MIC: 15 µM
[4]; MHB, read-out: Minimum Inhibitory Concentration (MIC) Staphylococcus aureus ATCC33591
  MIC: 25 µM
[14]
  Fold reduction in MIC: 32
[5]
  MIC: 50 µM
[6]; [18]
  MIC: 10 µM
[7]; MHB, read-out: Minimum Inhibitory Concentration (MIC) Listeria monocytogenes ATCC7644
  MIC: 10 µM
[8]; MHB, read-out: Minimum Inhibitory Concentration (MIC) Bacillus cereus ATCC14579
  MIC: 13 µM
[12]; MHB, read-out: Minimum Inhibitory Concentration (MIC) Pseudomonas aeruginosa ATTC27853
  MIC: >125 µM
